The target in one data set is ROCK2 (Homo sapiens, UniProt O75116). As to the kind of experiment: Kinase inhibition (ROCKI & ROCKII), radiometric 33P-ATP assay. Format: biochemical. The conditions noted are these: ROCK 1 nM, 120 min at room temperature. The protocol: On-target activity against ROCK was measured in a biochemical assay, using the following reagents: Base Reaction buffer; 20 mM Hepes (pH 7.5), 10 mM MgCl2, 1 mM EGTA, 0.02% Brij35, 0.02 mg/ml BSA, 0.1 mM Na3VO4, 2 mM DTT, 1% DMSO. Required cofactors are added individually to each kinase reaction. The reaction procedure first involved the preparation of a peptide substrate in a freshly prepared reaction buffer. Required cofactors were then added to the substrate solution. ROCK (1 nM final concentration) was then delivered to the substrate solution. After gentle mix, DMSO solutions of the test compounds were added to the enzyme. Substrate mix ^33P-ATP (specific activity 0.01 μCi/μl final) was then delivered into the reaction mixture to initiate the reaction. The kinase reaction was incubated for 120 min. at room temperature. Reactions were then spotted onto P81 ion exchange paper (Whatman #3698-915). Filters were washed extensively in 0.1% Phosphoric acid. A radiometric count was then performed and IC50 values were subsequently determined.
Chain of ROCK2 (O75116 whole entry, species assumed): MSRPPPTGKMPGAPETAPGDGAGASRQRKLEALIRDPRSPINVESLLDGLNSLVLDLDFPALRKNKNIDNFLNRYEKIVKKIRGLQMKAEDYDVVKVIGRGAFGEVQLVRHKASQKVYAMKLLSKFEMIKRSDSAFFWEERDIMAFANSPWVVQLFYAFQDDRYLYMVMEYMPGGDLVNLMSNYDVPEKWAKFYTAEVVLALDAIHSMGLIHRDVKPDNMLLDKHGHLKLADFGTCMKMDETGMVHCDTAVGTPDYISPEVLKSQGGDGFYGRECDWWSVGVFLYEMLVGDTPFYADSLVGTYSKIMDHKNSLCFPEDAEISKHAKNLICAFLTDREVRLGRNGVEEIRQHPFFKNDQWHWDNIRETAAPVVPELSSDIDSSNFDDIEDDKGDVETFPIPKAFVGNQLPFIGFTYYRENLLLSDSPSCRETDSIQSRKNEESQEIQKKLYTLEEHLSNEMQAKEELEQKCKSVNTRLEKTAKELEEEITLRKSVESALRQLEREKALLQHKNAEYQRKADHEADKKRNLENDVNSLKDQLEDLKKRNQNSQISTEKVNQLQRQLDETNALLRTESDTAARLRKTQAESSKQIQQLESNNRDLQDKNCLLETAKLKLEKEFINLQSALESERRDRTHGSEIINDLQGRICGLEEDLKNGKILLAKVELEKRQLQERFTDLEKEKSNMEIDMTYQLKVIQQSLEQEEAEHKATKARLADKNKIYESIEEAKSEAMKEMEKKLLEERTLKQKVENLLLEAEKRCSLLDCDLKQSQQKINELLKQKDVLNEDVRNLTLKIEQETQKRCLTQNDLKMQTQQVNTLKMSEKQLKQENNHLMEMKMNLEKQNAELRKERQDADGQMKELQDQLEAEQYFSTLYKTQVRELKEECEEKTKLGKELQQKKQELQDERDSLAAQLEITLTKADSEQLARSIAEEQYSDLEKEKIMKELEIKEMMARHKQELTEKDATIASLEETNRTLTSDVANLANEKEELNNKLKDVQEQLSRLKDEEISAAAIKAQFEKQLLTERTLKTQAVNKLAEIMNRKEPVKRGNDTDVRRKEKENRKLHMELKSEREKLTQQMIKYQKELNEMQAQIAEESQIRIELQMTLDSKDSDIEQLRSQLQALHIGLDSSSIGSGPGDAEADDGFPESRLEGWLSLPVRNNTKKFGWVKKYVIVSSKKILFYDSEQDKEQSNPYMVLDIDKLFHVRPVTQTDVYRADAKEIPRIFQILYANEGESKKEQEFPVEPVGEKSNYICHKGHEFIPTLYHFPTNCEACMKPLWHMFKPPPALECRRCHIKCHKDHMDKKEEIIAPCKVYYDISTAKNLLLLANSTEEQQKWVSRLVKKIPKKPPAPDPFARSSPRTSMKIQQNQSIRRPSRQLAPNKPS
The IC50 values obtained (in accordance with the protocol set forth above) are represented as follows: “+++” means IC50 below 0.1 μM, “++” means IC50 between 0.1 μM and 1 μM; “+” means IC50 between 1 and 10 μM and “ND” means “not determined yet”.

A short description of data set [1]: Stability assay in rabbit aqueous humor. Format: in vitro ADME. The conditions noted are these: 1 μM compound in rabbit aqueous humor, LC-MS/MS; read-out: t½ AH. The protocol: Compounds are incubated at a concentration of 1 μM in rabbit aqueous humor (AH). Samples are taken at fixed time points and the remnant of compound is determined by LC-MS/MS after protein precipitation. Half life is expressed in minutes.

Data set [2] deals with MLC-T18/S19 phosphorylation. As to the kind of experiment: Myosin light chain phosphorylation assay (ELISA) in A7r5 cells. Format: cell-based, Rat. The conditions noted are these: for EC50: Rattus norvegicus, MLC-T18/S19 phosphorylation, A7r5 cells, serum-free medium. The protocol:
Rat smooth muscle cell line A7r5 is used. The endogenous expression of ROCK results in a constitutive phosphorylation of the regulatory myosin light chain at T18/S19. A7r5 cells were plated in DMEM supplemented with 10% FCS in multiwall cell culture plates. After serum starvation overnight, cells were incubated with compounds in serum-free medium.
Quantification of MLC-T18/S19 phosphorylation is assesses in 96 well-plates via ELISA using a phspho-MLC-T18/S19 specific antibody and a secondary detection antibody. Relative MLC phosphorylation is measured with respect to untreated cells (Positive control, 1.0) and cells treated with 100 μM Y-27632 (Negative control, 0.0). EC50 values were determined using GraphPad Prism 5.01 software using a nonlinear regression curve fit with variable hill slope.
The […] values obtained (in accordance with the protocols set forth above) are represented as follows: “+++” means EC50 below 0.3 μM, “++” means EC50 between 0.3 μM and 1 μM; “+” means EC50 between 1 and 10 μM and “−” means EC50>10 μM.
On the technique in general: ELISA stands for enzyme-linked immunosorbent assay.

A short description of data set [3]: Stability assay in human plasma. Format: in vitro ADME. The conditions noted are these: 1 μM compound, LC-MS/MS, read-out: t½ human plasma. The protocol:
(§1) Compounds are incubated at a concentration of 1 μM in human or animal (rat, mice or rabbit) […] or whole blood. Samples are taken at fixed time points and the remnant of compound is determined by LC-MS/MS after protein precipitation. Half life is expressed in minutes.

The nature of data set [4]: Stability assay in human whole blood. Format: in vitro ADME. As to conditions: 1 μM compound, LC-MS/MS, read-out: t½ human whole blood. The method, then:
as §1

The structures appear in SMILES notation. Where a name gives a salt, the structure may show the parent alone. Bounds are passed on as bounds.

We go through 30 molecules from patent US9394286B2, “Rock inhibitors” (Amakem NV, priority 2012, dated 2016).

As a reminder, the IC50 is the concentration that gives 50% inhibition. What is called EC50 is the concentration giving half of the maximal effect. Low readings indicate higher potency in that assay, high ones lower potency in that assay. `COC(=O)c1cccc(C(=O)Nc2cccc(CN3CCC(Nc4cccc5cnccc45)C3)c2)c1` (stereo not shown) [Compound 1, Methyl 3-((3-((3-(isoquinolin-5-ylamino)pyrrolidin-1-yl)methyl)phenyl)carbamoyl)benzoate]: the concentration for half-maximal inhibition (IC50) on ROCK2 was less than 100 nM. The half-life at 1 μM in data set [1] is more than 120 min. Further, the EC50 in data set [2] was less than 300 nM.
The molecule `COC(=O)c1ccc(C(=O)Nc2cccc(CN3CCC(Nc4cccc5cnccc45)C3)c2)cc1` (stereo not shown) [Compound 2, Methyl 4-((3-((3-(isoquinolin-5-ylamino)pyrrolidin-1-yl)methyl)phenyl)carbamoyl)benzoate] showed an IC50 against ROCK2 of less than 100 nM. In data set [2], this molecule returned an EC50 of less than 300 nM.
In the case of `COC(=O)c1cccc(C(=O)Nc2cc(CN3CCCC(Nc4ccc5[nH]ncc5c4)C3)ccc2C)c1` (stereo not shown) [Compound 3, Methyl 3-((5-((3-((1H-indazol-5-yl)amino)piperidin-1-yl)methyl)-2-methylphenyl)carbamoyl)benzoate dihydrochloride], the half-life at 1 μM is 33 min in data set [3] and more than 120 min in data set [1].
For `COC(=O)c1cccc(C(=O)Nc2cc(CN3CCC(Nc4cccc5cnccc45)C3)ccc2C)c1` (stereo not shown) [Compound 7], in that order: 31 min and more than 120 min.
Take `COC(=O)c1ccc(C(=O)Nc2cc(CN3CCCC(Nc4ccc5[nH]ncc5c4)C3)ccc2C)cc1` (stereo not shown) [Compound 15]: in data set [1], the half-life at 1 μM is more than 120 min.
`COC(=O)c1cccc(C(=O)Nc2cccc(CNC3CCC(Nc4cccc5cnccc45)CC3)c2)c1` (stereo not shown) [Compound 16] displayed an IC50 on ROCK2 of less than 100 nM. Moreover, the half-life at 1 μM in data set [3] was less than 20 min. The molecule also had an EC50 in data set [2] of less than 300 nM.
`COC(=O)c1ccc(C(=O)Nc2cccc(CNC3CCC(Nc4cccc5cnccc45)CC3)c2)cc1` (stereo not shown) [Compound 17]: the IC50 on ROCK2 was less than 100 nM.
Still for that read-out and setting: the result for `COC(=O)c1cccc(C(=O)Nc2cccc(CN3CCC(Nc4cccc5cnccc45)CC3)c2)c1` [Compound 18] reads less than 100 nM; that for `COC(=O)c1ccc(C(=O)Nc2cccc(CN3CCC(Nc4cccc5cnccc45)CC3)c2)cc1` [Compound 19], less than 100 nM.
With `CCCOC(=O)c1cccc(C(=O)Nc2cccc(CN3CCC(Nc4cccc5cnccc45)C3)c2)c1` (stereo not shown) [Compound 21], the half-maximal inhibitory concentration (IC50) against ROCK2 was less than 100 nM. The figures for the half-life at 1 μM in data set [3], in data set [1] and in data set [4] were less than 20 min, 120 min and less than 20 min, respectively. Further, the half-maximal effective concentration (EC50) in data set [2] was less than 300 nM.
`COCCOC(=O)c1cccc(C(=O)Nc2cccc(CN3CCC(Nc4cccc5cnccc45)C3)c2)c1` (stereo not shown) [Compound 22] had an IC50 at ROCK2 of less than 100 nM. The half-life at 1 μM in data set [3] is less than 20 min; in data set [1], more than 120 min; in data set [4], less than 20 min. In data set [2], this molecule showed an EC50 of less than 300 nM.
As to `O=C(Nc1cccc(CN2CCC(Nc3cccc4cnccc34)C2)c1)c1cccc(C(=O)OCC2CCCO2)c1` (stereo not shown) [Compound 23], on ROCK2, the concentration for half-maximal inhibition (IC50) is less than 100 nM. In addition, the results for the half-life at 1 μM in data set [3], in data set [1] and in data set [4] were less than 20 min, 77 min and less than 20 min, respectively.
`CCCOC(=O)c1ccc(C(=O)Nc2cccc(CN3CCC(Nc4cccc5cnccc45)C3)c2)cc1` (stereo not shown) [Compound 24] had an IC50 against ROCK2 of less than 100 nM. For the same molecule, the EC50 in data set [2] was less than 300 nM.
In turn, `COCCOC(=O)c1ccc(C(=O)Nc2cccc(CN3CCC(Nc4cccc5cnccc45)C3)c2)cc1` (stereo not shown) [Compound 25] had an IC50 against ROCK2 of less than 100 nM.
Same read-out and setting: the result for `O=C(Nc1cccc(CN2CCC(Nc3cccc4cnccc34)C2)c1)c1ccc(C(=O)OCC2CCCO2)cc1` (stereo not shown) [Compound 26] reads less than 100 nM.
For `CCCOC(=O)c1cccc(C(=O)Nc2cccc(CNC3CCC(Nc4cccc5cnccc45)CC3)c2)c1` (stereo not shown) [Compound 27], the IC50 at ROCK2 is less than 100 nM. In addition, the half-life at 1 μM in data set [3] was less than 20 min; in data set [1], more than 120 min.
As to `COCCOC(=O)c1cccc(C(=O)Nc2cccc(CNC3CCC(Nc4cccc5cnccc45)CC3)c2)c1` (stereo not shown) [Compound 28], the IC50 against ROCK2 is less than 100 nM. Moreover, the figures for the half-life at 1 μM in data set [3] and in data set [1] were less than 20 min and more than 120 min, respectively.
Taken in the same sequence, the figures for `O=C(Nc1cccc(CNC2CCC(Nc3cccc4cnccc34)CC2)c1)c1cccc(C(=O)OCC2CCCO2)c1` (stereo not shown) [Compound 29] were less than 100 nM, less than 20 min and more than 120 min.
On to `CCCOC(=O)c1ccc(C(=O)Nc2cccc(CNC3CCC(Nc4cccc5cnccc45)CC3)c2)cc1` (stereo not shown) [Compound 30], for which the IC50 at ROCK2 was less than 100 nM.
On ROCK2, `COCCOC(=O)c1ccc(C(=O)Nc2cccc(CNC3CCC(Nc4cccc5cnccc45)CC3)c2)cc1` (stereo not shown) [Compound 31] yielded an IC50 of less than 100 nM.
In turn, `O=C(Nc1cccc(CNC2CCC(Nc3cccc4cnccc34)CC2)c1)c1ccc(C(=O)OCC2CCCO2)cc1` (stereo not shown) [Compound 32] returned an IC50 at ROCK2 of less than 100 nM. For the same molecule, in data set [3], the half-life at 1 μM amounted to 20 min. The same molecule yielded an EC50 in data set [2] of 300 to 1000 nM.
The molecule `CCCOC(=O)c1cccc(C(=O)Nc2cccc(CN3CCC(Nc4cccc5cnccc45)CC3)c2)c1` [Compound 33] came in with an IC50 on ROCK2 of less than 100 nM. Also, the half-life at 1 μM in data set [3] is less than 20 min; in data set [1], more than 120 min.
As to `COCCOC(=O)c1cccc(C(=O)Nc2cccc(CN3CCC(Nc4cccc5cnccc45)CC3)c2)c1` [Compound 34], the IC50 against ROCK2 is less than 100 nM. Also, the half-life at 1 μM was less than 20 min in data set [3] and more than 120 min in data set [1]. In data set [2], this molecule showed an EC50 of 300 to 1000 nM.
Regarding `O=C(Nc1cccc(CN2CCC(Nc3cccc4cnccc34)CC2)c1)c1cccc(C(=O)OCC2CCCO2)c1` (stereo not shown) [Compound 35], the IC50 on ROCK2 was less than 100 nM. For the same molecule, the half-life at 1 μM was less than 20 min in data set [3] and more than 120 min in data set [1].
Turning to `CCCOC(=O)c1ccc(C(=O)Nc2cccc(CN3CCC(Nc4cccc5cnccc45)CC3)c2)cc1` [Compound 36], the IC50 against ROCK2 is less than 100 nM.
`COCCOC(=O)c1ccc(C(=O)Nc2cccc(CN3CCC(Nc4cccc5cnccc45)CC3)c2)cc1` [Compound 37]: the IC50 against ROCK2 was less than 100 nM.
The same measure, in the same setting: under `O=C(Nc1cccc(CN2CCC(Nc3cccc4cnccc34)CC2)c1)c1ccc(C(=O)OCC2CCCO2)cc1` (stereo not shown) [Compound 38] stands less than 100 nM.
In turn, `C[C@@H](N)[C@H]1CC[C@H](C(=O)Nc2ccncc2)CC1` [Compound Y-27632, Y-27632, reference compound] displayed an EC50 in data set [2] of 300 to 1000 nM.
The same measure, in the same setting: under `O=S(=O)(c1cccc2cnccc12)N1CCCNCC1` [Fasudil, reference compound] stands 1000 to 10000 nM.
In the case of `O=C(O)c1ccc(C(=O)Nc2cccc(CNC3CCC(Nc4cccc5cnccc45)CC3)c2)cc1` (stereo not shown) [Met1], the “difference in EC50 values between compound 32 and its metabolite Met1” value in data set [2] (MLC phosphorylation assay, FIG. 1, Met1 versus parent compound 32) is more than 20 fold.
